# Experimental data taken from patent US10745731B2, “Recombinant production method” (Hoffmann-La Roche Inc., priority 2015, dated 2020).
# Like-named read-outs stand apart in the source and are kept apart here.
# Key:
# HEK293F cells [1] = assay type: cell-based
# Procedure: (§1) To determine cell viability and viable cell density (VCD) 1 mL cultivation medium (cell suspension) was transferred into a Cedex low fouling sample cup. The cup was placed into a Vicell instrument (Beckman Coulter). The instrument mixes cells with trypan blue to stain dead cells. After analysis of 50 images VCD was calculated and viability was determined by calculation of the percentage of viable cell number in relation to the total cell number.
# HEK293F cells [2] = assay: Transient gene expression in HEK293F cells: cell specific productivity of the expressed antibody; assay type: cell-based, human; conditions: for cell specific productivity with BAY11-7082 addition compared to the single treatment: 15 μM BAY11-7082 added 24 h after transfection; for specific productivity after 96 hours: none 2.01; for Mean cell specific productivity: untreated 1.71
# Procedure: HEK293F cells were cultivated in F17 medium (Life Technologies) in shaker flasks at 36.5° C., 7.0% CO2 and 80% humidity in a shaker incubator (Kuhner, Mytron). Cells were split every three to four days and were cultivated no longer than five weeks. To avoid overgrowth and to keep them in the exponential phase of growth, viable cell densities (VCD) never exceeded 60*10^5 cells/mL.
# (§2) Transient gene expression is a 5-7 days lasting procedure. The standard operating procedure of this expression system is applicable to shaker flasks with various volumes of cell culture ranging from 80 mL to 2 L. First, half of the cell culture volume is seeded at a viable cell density (VCD) of 8*10^5 cells/mL. After two days of cultivation, cells are split to a VCD of about 12*10^5 cells/mL. On the next day, cells are transfected with a polyethylene imine (PEI)-based transfection reagent at a VCD between 20*10^5 cells/mL and 25*10^5 cells/mL. 3 hours after transfection, the production enhancer (if any) is added. 24 h after transfection, a feeding solution and a glucose bolus is supplemented to avoid the limitation of nutrients. Depending on cell viability, which should not decrease below 50%, the supernatant is harvested five to seven days post transfection and subjected to antibody purification.
# (§3) To compare transient gene expression rates always the same plasmids encoding for one distinct antibody were co-transfected.
# (§4) To co-transfect two plasmids equimolarily, the ratio of the base pair number of one plasmid to the total base pair number was calculated and multiplied with the total amount of DNA (0.5 mg/L). Plasmid one has a size of 10530 bp and plasmid two has a size of 7184 bp and were solved in water to a final concentration of 1 mg/mL. For transfection of one liter cell culture, 297 μL of plasmid one and 203 μl of plasmid two were dissolved in 40 mL phosphate buffered saline (PBS) at room temperature. 1.25 mL JetPEI® solution was added and the solution was mixed well. After incubation for 10-15 min., the mixture was added to the cells. The cells were transfected in a batch containing the whole cell culture necessary for every experiment to avoid variance arising from different transfection efficiencies.
# (§5) 80 mL of the transfected cell culture batch was added to a 125 ml shaker flask. For every experiment, two or three 125 mL shaker flasks were used as biological replicates and treated the same way. Three hours after transfection, cells were split into 125 mL shaker flasks and the cellular treatments with small molecules or ligands were started. Basal protein expression was determined by untreated control samples. To compare samples with the standard operating procedure, cells were also treated with VPA to a final concentration of 4 mM or 3 mM. VPA and its analogues were dissolved in double distilled water. […] Tumor necrosis factor (TNF) alpha was reconstituted with PBS supplemented with 0.1% BSA. Flagellin was dissolved in sterile double distilled water. The applied molecules were not added to the cultivation directly, but diluted in 16 mL medium pre-warmed to 36.5° C. and added to the cultivation thereafter.
# (§6) 24 h after transfection a feeding solution at 36.5° C. and 3 mg/mL glucose were added to the cultivation.
# as §1
# (§7) Total concentration of the transiently expressed antibody was determined by a turbidimetric test. One mL cell suspension was transferred into an Eppendorf cup and centrifuged for 10 min. at 10,000 rpm (9,300 g).
# HDAC [3] = assay: in situ HDAC activity fluorimetric assay in HEK293F cells; assay type: cell-based, human; conditions: for HDACi: N=3, FIG. 3A; for HDAC inhibition: yes/no, summary table
# Procedure: HDAC activity was determined by the in situ HDAC activity fluorimetric assay kit (Biovision) according to the manufacturer's instructions. HEK293F cells were suspended in F17 medium (Life Technologies) to a cell density of 5*10^5 cells/mL. One hundred micro liter culture was pipetted per well into a black ELISA plate. The plate was centrifuged at 1000 g for 5 min. The supernatant was discarded and the cells were resuspended in a reaction mix containing F17 medium, 1% HDAC substrate and the molecule tested towards HDAC inhibitory activity. 10 μM Trichostatin A was used as a positive control and the basal HDAC activity was determined by re-suspending the cells in F17 medium with 1% HDAC substrate. Furthermore, cells were resuspended in F17 medium without HDAC substrate as a background control. The HDAC activity assay was performed in triplicates for every sample as well as every control. The 96-well plate was incubated at 36.5° C., 80% humidity and 7% CO2 for one hour. During this time, the active HDACs deacetylate the HDAC substrate what releases the quenched fluorescent signal of the substrate. After incubation the fluorescent signal was analyzed by the infinite fluorescence plate reader (TECAN). The fluorescence signal of the samples and controls was normalized by subtracting the fluorescence signal of the background control. It is assumed that the fluorescent signal arising from deacetylation of the substrate directly correlates with HDAC activity.
# HDAC [4] = conditions: description from the literature; cited from earlier work
# HEK293F cells [5] = assay: Transient gene expression in HEK293F cells: IgG concentration / titer (turbidimetric test); assay type: cell-based, human; conditions: none=100; for relative IgG concentration: N=3; for relative titer: N=2
# Procedure: as §2, §3, §4, §5, §6
# as §7, with “g). The supernatant was transferred into a new cup and subjected to Cobas Integra 400 plus (Roche) analysis. With comparison to internal standard the absolute concentration was calculated.” for “g).”
structure (smiles),measurement,setting,value
"CC/C=C(\C)C(=O)O [2M2P, trans-2-methyl 2-pentenoic acid]",toxicity (remark in titer cell),"HEK293F cells [1]; human, 11 mM",toxic
same,cell specific productivity with BAY11-7082 addition compared to the single treatment,HEK293F cells [2],No reduction
same,protein expression yields compared to the negative control,"HEK293F cells [2]; 3 mM, in words",clearly increased
same,specific productivity after 96 hours,"HEK293F cells [2]; 3 mM, single treatment, N=3",2.40 pg/cell/day
same,activity at 3000 µM,"HEK293F cells [2]; Homo sapiens, HEK293F, 3 mM, 2M2P/Quisinostat combination study, none=100, N=3, read-out: relative cell specific productivity",169%
same,activity at 3000 µM,"HEK293F cells [2]; Homo sapiens, HEK293F, 3 mM, VPA/2M2P combination study, none=100, N=3, read-out: relative cell specific productivity",169%
same,activity at 3000 µM,"HEK293F cells [2]; Homo sapiens, HEK293F, 3 mM, none=100, N=3, FIG. 6A, read-out: relative cell specific productivity",131%
same,activity at 3000 µM,"HEK293F cells [2]; Homo sapiens, HEK293F, 3 mM, none=100, N=3, FIG. 9A, read-out: relative cell specific productivity",131%
same,activity at 3000 µM,"HEK293F cells [2]; Homo sapiens, HEK293F, 3 mM, single treatment, none=100, N=3, read-out: relative cell specific productivity",144%
same,activity at 3000 µM,"HEK293F cells [2]; Homo sapiens, HEK293F, 3 mM, transfected control=100, N=3, FIG. 3B, read-out: relative cell specific productivity",191%
same,activity at 2000 µM,"HEK293F cells [2]; Homo sapiens, HEK293F, employed concentration 2 mM, none=100, N=2, FIG. 4, read-out: relative cell specific productivity",123%
same,activity at 3000 µM,"HEK293F cells [2]; Homo sapiens, HEK293F, employed concentration 3 mM, none=100, N=2, FIG. 4, read-out: relative cell specific productivity",196%
same,Mean cell specific productivity,HEK293F cells [2]; conc. 3 mM,5.4 (3 mM) pg/cell/24 h
same,HDACi,HDAC [3]; 3 mM,9.4%
same,HDAC inhibition,HDAC [3],no
same,HDAC inhibitory activity,HDAC [4],very weak to no HDAC inhibitory activity
same,relative IgG concentration,"HEK293F cells [5]; 3 mM, 2M2P/Quisinostat combination study",146%
same,relative IgG concentration,"HEK293F cells [5]; 3 mM, VPA/2M2P combination study",146%
same,relative IgG concentration,"HEK293F cells [5]; 3 mM, FIG. 6B",128%
same,relative IgG concentration,"HEK293F cells [5]; 3 mM, FIG. 9B",128%
same,relative titer,HEK293F cells [5]; 2M2P concentration 3 mM,165%
same,relative titer,HEK293F cells [5]; 2M2P concentration 6 mM,257%
same,relative titer,HEK293F cells [5]; 2M2P concentration 7 mM,258%
same,relative titer,HEK293F cells [5]; 2M2P concentration 8 mM,172%
same,relative titer,HEK293F cells [5]; 2M2P concentration 9 mM,120%
same,relative titer,HEK293F cells [5]; 2M2P concentration 10 mM,42%
same,relative titer,HEK293F cells [5]; 2M2P concentration 11 mM,0%
Cl.Cn1cc(CNCC2CCN(c3ncc(C(=O)NO)cn3)CC2)c2ccccc21 [Quisinostat],growth inhibition and cell death,HEK293F cells [1]; in contrast to other HDACi tested,induce growth inhibition and cell death
same,specific productivity after 96 hours,"HEK293F cells [2]; 300 nM, single treatment, N=3",3.89 pg/cell/day
same,cell specific productivity with BAY11-7082 addition compared to the single treatment,HEK293F cells [2],significantly reduced
same,activity at 0.3 µM,"HEK293F cells [2]; Homo sapiens, HEK293F, 300 nM, 2M2P/Quisinostat combination study, none=100, N=3, read-out: relative cell specific productivity",258%
same,activity at 0.3 µM,"HEK293F cells [2]; Homo sapiens, HEK293F, 300 nM, VPA/Quisinostat combination study, none=100, N=3, read-out: relative cell specific productivity",258%
same,activity at 0.3 µM,"HEK293F cells [2]; Homo sapiens, HEK293F, 300 nM, single treatment, none=100, N=3, read-out: relative cell specific productivity",218%
same,activity at 0.3 µM,"HEK293F cells [2]; Homo sapiens, HEK293F, 300 nM, transfected control=100, N=3, FIG. 3B, read-out: relative cell specific productivity",339%
same,activity at 0.3 µM,"HEK293F cells [2]; Homo sapiens, HEK293F, employed concentration 300 nM, none=100, N=2, FIG. 2B, read-out: relative cell specific productivity",279%
same,Mean cell specific productivity,HEK293F cells [2]; conc. 300 mM (so in the source),1.71 (300 mM) pg/cell/24 h
same,Effect on titer/SPR,"HEK293F cells [2]; summary table, in words",strong
same,HDACi,HDAC [3]; 300 nM,69%
same,HDAC inhibition,HDAC [3],yes
same,HDAC class / isoform selectivity,HDAC [4],"very potent broad spectrum HDAC inhibitor with highest potency towards HDAC 1, 2, 4, and 11"
same,relative IgG concentration,"HEK293F cells [5]; 300 nM, 2M2P/Quisinostat combination study",169%
same,relative IgG concentration,"HEK293F cells [5]; 300 nM, VPA/Quisinostat combination study",169%
